Measurements as given in ChEMBL document CHEMBL3045195, “Comparison of the activity of non-steroidal ecdysone agonists between dipteran and lepidopteran insects, using cell-based EcR reporter assays” (Pest Manag Sci, 2010).
The source made the active and inactive calls. The rule behind the calls is not given here.

Key:
Format in all cases: cell-based
[1] = biological target: T1, Ecdysone receptor (Drosophila melanogaster) (UniProt P34021+P20153); test: Agonist activity at ecdysone receptor in Drosophila melanogaster S2 cells at 100 uM after 24 hr by luciferase reporter gene assay relative to 20-hydroxyecdysone
Ecdysone receptor [2] = biological target: T2, Ecdysone receptor (Bombyx mori, UniProt P49881); test: Agonist activity at ecdysone receptor in Bombyx mori Bm5 cells after 24 hr by luciferase reporter gene assay
T2 sequence (P49881 whole entry): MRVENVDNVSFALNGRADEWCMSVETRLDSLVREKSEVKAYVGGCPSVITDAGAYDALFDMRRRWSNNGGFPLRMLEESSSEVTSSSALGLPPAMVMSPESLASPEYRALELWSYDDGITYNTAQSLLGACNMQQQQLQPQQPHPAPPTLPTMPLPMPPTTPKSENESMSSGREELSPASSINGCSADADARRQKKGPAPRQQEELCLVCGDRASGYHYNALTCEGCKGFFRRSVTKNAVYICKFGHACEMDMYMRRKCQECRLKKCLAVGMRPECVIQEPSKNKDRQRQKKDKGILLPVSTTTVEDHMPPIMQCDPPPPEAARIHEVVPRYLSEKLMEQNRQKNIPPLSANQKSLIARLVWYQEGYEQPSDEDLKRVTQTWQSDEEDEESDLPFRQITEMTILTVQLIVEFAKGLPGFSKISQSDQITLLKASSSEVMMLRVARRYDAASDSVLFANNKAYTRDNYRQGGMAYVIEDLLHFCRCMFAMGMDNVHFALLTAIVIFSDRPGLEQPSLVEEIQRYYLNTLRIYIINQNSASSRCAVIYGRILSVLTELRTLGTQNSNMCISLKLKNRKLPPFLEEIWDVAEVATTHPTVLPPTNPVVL

Ecdysone receptor [3] = biological target: T3, Ecdysone receptor (Drosophila melanogaster, UniProt P20153+P34021); test: (§1) Agonist activity at ecdysone receptor in Drosophila melanogaster S2 cells after 24 hr by luciferase reporter gene assay
T3 sequence (P34021 whole entry): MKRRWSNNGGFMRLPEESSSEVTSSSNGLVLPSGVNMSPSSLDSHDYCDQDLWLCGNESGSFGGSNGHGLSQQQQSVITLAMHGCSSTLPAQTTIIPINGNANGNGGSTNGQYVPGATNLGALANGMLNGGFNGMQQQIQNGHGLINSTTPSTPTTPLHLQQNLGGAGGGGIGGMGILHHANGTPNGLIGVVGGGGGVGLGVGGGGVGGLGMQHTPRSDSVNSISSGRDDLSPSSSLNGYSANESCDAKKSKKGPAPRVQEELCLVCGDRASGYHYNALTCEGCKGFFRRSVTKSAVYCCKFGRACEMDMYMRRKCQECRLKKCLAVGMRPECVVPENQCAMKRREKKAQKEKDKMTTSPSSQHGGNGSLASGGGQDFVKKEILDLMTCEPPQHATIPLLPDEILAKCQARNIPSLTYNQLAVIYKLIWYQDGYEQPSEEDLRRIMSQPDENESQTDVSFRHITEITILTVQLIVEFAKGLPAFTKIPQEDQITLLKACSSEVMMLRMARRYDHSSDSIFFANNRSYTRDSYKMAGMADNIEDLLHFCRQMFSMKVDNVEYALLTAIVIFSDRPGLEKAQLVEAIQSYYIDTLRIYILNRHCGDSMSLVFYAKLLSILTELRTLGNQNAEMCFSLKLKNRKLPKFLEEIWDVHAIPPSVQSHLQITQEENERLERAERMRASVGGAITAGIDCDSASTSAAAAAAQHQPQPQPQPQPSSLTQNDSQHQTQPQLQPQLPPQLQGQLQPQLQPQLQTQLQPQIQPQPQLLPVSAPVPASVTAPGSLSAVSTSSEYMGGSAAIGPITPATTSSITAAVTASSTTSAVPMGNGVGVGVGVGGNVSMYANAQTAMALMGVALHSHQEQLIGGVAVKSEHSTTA
T3 sequence (P20153 whole entry): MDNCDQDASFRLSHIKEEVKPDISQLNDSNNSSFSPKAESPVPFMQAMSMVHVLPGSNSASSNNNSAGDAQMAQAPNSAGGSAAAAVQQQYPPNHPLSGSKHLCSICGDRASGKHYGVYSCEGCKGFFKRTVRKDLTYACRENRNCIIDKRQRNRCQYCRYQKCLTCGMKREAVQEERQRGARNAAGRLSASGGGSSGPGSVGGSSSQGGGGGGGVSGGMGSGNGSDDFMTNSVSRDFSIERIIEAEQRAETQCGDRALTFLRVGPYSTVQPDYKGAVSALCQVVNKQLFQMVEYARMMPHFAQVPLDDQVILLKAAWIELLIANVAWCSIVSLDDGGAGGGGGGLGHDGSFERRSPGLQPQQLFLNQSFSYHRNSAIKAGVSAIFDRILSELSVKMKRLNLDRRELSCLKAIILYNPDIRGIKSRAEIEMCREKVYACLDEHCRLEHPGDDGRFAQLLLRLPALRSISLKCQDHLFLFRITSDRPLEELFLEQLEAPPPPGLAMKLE

[4] = biological target: T1, Ecdysone receptor (Drosophila melanogaster); test: as §1

Efficacy [1] [%]	EC50 (Ecdysone receptor [2]) [µM]	EC50 (Ecdysone receptor [3]) [µM]	SMILES	pEC50 [4]
46	1.62	107	Cc1ccc(C)c(C(=O)NN(C(=O)c2ccccc2Cl)C(C)(C)C)c1	–
48	0.603	107	Cc1cccc(C(=O)NN(C(=O)c2ccccc2Cl)C(C)(C)C)c1	–
–	–	–	CCC(CC)(NC(=O)c1ccc2c(c1C)CCCO2)C(=O)c1cc(C)cc(C)c1	inactive
6	25.7	> 100	O=C(NN(C(=O)c1ccccc1)c1ccccc1)c1ccccc1	–
–	–	–	CCc1ccc(C(=O)NC(C(=O)c2cc(C)cc(C)c2)C(C)(C)C)cc1 (racemic)	inactive
71	0.0525	12	CCOc1cccc(C(=O)NN(C(=O)c2cc(C)cc(C)c2)C(C)(C)C)c1C	–
–	–	–	Cc1cc(C)cc(C(=O)C2(NC(=O)C(F)(F)F)CCCCC2)c1	inactive
–	11.7	–	CCCCCCC(=O)N(NC(=O)c1ccc(CC)cc1)C(C)(C)C	inactive
52	0.603	93.3	CC(C)(C)N(NC(=O)c1ccc(C#N)cc1)C(=O)c1ccccc1Cl	–
62	0.389	37.2	CC(C)(C)N(NC(=O)c1ccc(F)cc1)C(=O)c1ccccc1Cl	–
60	0.0661	45.7	COc1cccc(C(=O)NN(C(=O)c2cc(C)cc(C)c2)C(C)(C)C)c1	–
80	0.191	13.2	CC(C)(C)N(NC(=O)c1cccc(Br)c1)C(=O)c1ccccc1Cl	–
40	0.117	148	CC(C)(C)N(NC(=O)c1ccccc1)C(=O)c1ccc(Cl)cc1Cl	–
–	–	–	CCc1ccc(C(=O)NC(CC)(CC)C(=O)c2cc(C)cc(C)c2)cc1	inactive
50	0.589	97.7	CCc1ccccc1C(=O)N(NC(=O)c1ccccc1)C(C)(C)C	–
–	46.8	–	CC(C)(C)N(NC(=O)c1ccccc1)C(=O)C1CCCCC1	inactive
67	0.955	36.3	CC(C)(C)N(NC(=O)c1cccc(C#N)c1)C(=O)c1ccccc1Cl	–
60	0.0871	66.1	Cc1ccc(C(=O)NN(C(=O)c2ccccc2Cl)C(C)(C)C)cc1C	–
52	0.115	81.3	CC(C)(C)N(NC(=O)c1ccc(Cl)cc1)C(=O)c1ccccc1Cl	–
77	0.0155	16.6	COc1cccc(C(=O)NN(C(=O)c2ccccc2Cl)C(C)(C)C)c1C	–
54	1.29	87.1	CC(C)(C)N(NC(=O)c1ccccc1I)C(=O)c1ccccc1Cl	–
–	14.5	–	Cc1cc(C)cc(C(=O)NN(C(=O)CCC(C)C)C(C)(C)C)c1	inactive
58	0.0525	72.4	COc1cccc(C(=O)NN(C(=O)c2ccccc2Cl)C(C)(C)C)c1	–
59	0.316	60.3	CC(C)(C)N(NC(=O)c1ccccc1Br)C(=O)c1ccccc1Cl	–
76	0.0692	25.7	CC(C)(C)N(NC(=O)c1cccc(F)c1)C(=O)c1ccccc1Cl	–
–	0.0977	–	CCCCCCCC(=O)NN(C(=O)c1cc(C)cc(C)c1)C(C)(C)C	inactive
76	0.02	11.5	Cc1cccc(C(=O)NN(C(=O)c2ccccc2Cl)C(C)(C)C)c1C	–
74	0.00933	7.76	CC(C)(C)N(NC(=O)c1cccc(Cl)c1Cl)C(=O)c1ccccc1Cl	–

SMILES	Efficacy [1] [%]	EC50 (Ecdysone receptor [2]) [µM]	EC50 (Ecdysone receptor [3]) [µM]	pEC50 [4]
CC(C)CN(NC(=O)c1ccccc1)C(=O)c1ccccc1	33	2.88	> 100	–
CCc1ccc(C(=O)NN(C(=O)CCC(C)C)C(C)(C)C)cc1	–	0.832	–	inactive
CCCCC(=O)NN(C(=O)c1cc(C)cc(C)c1)C(C)(C)C	–	1.86	–	inactive
CCc1ccc(C(=O)NN(C(=O)c2ccccc2)C(C)(C)C)cc1	52	0.0049	5.5	–
CCCCCC(=O)NN(C(=O)c1cc(C)cc(C)c1)C(C)(C)C	36	0.0794	> 100	–
O=C(NN(CC1CCCCC1)C(=O)c1ccccc1)c1ccccc1	1	1.7	> 100	–
CCc1ccc(C(=O)NN(C(=O)C2CCCCC2)C(C)(C)C)cc1	–	9.33	–	inactive
CN(C(=O)c1ccccc1)N(C)C(=O)c1ccccc1	–	> 100	–	inactive
Cc1cc(C)c(Cl)c(C(=O)N(NC(=O)c2ccccc2)C(C)(C)C)c1	2	–	> 100	–
CC(C)(C)N(Cc1ccccc1)NC(=O)c1ccccc1	1	–	> 100	–
CC(C)c1ccc(C(=O)NN(C(=O)c2ccccc2Cl)C(C)(C)C)cc1	88	0.0245	12	–
Cc1cc(C)cc(C(=O)N(NC(=O)CCC(C)C)C(C)(C)C)c1	35	0.0912	> 100	–
Cc1ccccc1C(=O)NN(C(=O)c1ccccc1Cl)C(C)(C)C	83	0.0724	25.7	–
CCc1ccc(C(=O)NN(C(=O)C2CC=CCC2)C(C)(C)C)cc1 (configuration not stated)	1	1	> 100	–
Cc1cc(C)cc(C(=O)N(NC(=O)c2ccccc2)C(C)(C)C)c1	57	0.0692	66.1	–
CCCCCCC(=O)NN(C(=O)c1ccccc1Cl)C(C)(C)C	10	0.741	> 100	–
CCCCN(NC(=O)c1ccccc1)C(=O)c1ccccc1	4	7.08	> 100	–
CCCCN(C(=O)c1ccccc1)N(C(=O)c1ccccc1)C(C)(C)C	–	> 100	–	inactive
O=C(NN(C(=O)c1ccccc1)C1CCCCC1)c1ccccc1	18	0.891	> 100	–
CC(C)(C)N(NC(=O)c1ccccc1F)C(=O)c1ccccc1Cl	73	0.0513	33.9	–
Cc1cc(C)cc(C(=O)NN(C(=O)CCCC(C)C)C(C)(C)C)c1	–	> 100	–	inactive
CCCCCC(=O)N(NC(=O)c1cc(C)cc(C)c1)C(C)(C)C	–	8.71	–	inactive
CCCCCCCCCC(=O)NN(C(=O)c1cc(C)cc(C)c1)C(C)(C)C	–	1.55	–	inactive
CCc1ccc(C(=O)NN(C(=O)c2cccc3ccccc23)C(C)(C)C)cc1	53	0.0132	10.5	–
COc1ccc(C(=O)NN(C(=O)c2ccccc2Cl)C(C)(C)C)cc1	112	0.0513	11.2	–
